For this data set, the system named is CYP1A2. Put plainly: MEROD assay in live Hepa1c1c7 cells incubated with test compound (CYP1A2 induction). The data set is classed as cell-based, mouse. Conditions: live Hepa1c1c7 cells incubated with 10 μM compound. From the text:
FIG. 1 illustrates how caffeine is primarily metabolized to paraxanthine via CYP1A2 enzyme in a human, according to some embodiments. The MEROD (methoxyresorufin-O-demethylase) assay measures the activity of the enzyme (CYP1A2) that converts methoxyresorufin (probe substrate) to resorufin (demethylation) in the presence of NADPH. The resulting resorufin concentration can be measured using a fluorescence reader by setting the excitation and emission wavelengths at 544 and 590 nm, respectively.
For MEROD assay in live cells, Hepa1c1c7 cells were cultured in either 6-well or 24-well-plates. For the 24-well plate experiment, after confluent cells were incubated for approximately 20 hours with either resorufin, nitro-resorufin, chloro-resorufin, 3-MC or DMSO (in triplicates), culture media was removed and 180 μL fresh culture media containing […] methoxyresorufin was added per well. After 1 hour incubation at 37° C., […] aliquot was taken from each well and the formation of resorufin was measured by fluorescence. […] After 5 hours incubation at 37° C., 100 μL aliquot was taken from each well, centrifuged at 12,000 g at RT for ˜5 min and the supernatants were placed into wells of a 96-well fluorescence plate and the formation of resorufin was measured by fluorescence.

On to `O=c1c2ccc(Cl)cc2nc2n1CCc1c-2[nH]c2ccccc12` [chloro-rutaecarpine], for which the “formation of resorufin (MEROD)” value is on record as “no marked difference”.

These data come from patent US20120322813A1, “RUTAECARPINE DERIVATIVES FOR TREATING CAFFEINE TOXICITY” (priority 2011, published 2012).
